Test results taken from patent US20200289525A1, “Methods of Increasing Microbial Diversity of a Skin Microbiota” (The Procter & Gamble Company, priority 2019, published 2020).
“Also recorded” adds a separate entry of the source. Like-named read-outs stand apart in the source and are kept apart here.

Key:
skin microbiota [1] = settings: atopic dermatitis lesion area, baseline vs four weeks of daily washes
Procedure: The effect of zinc pyrithione body wash on skin microbiota of subjects with atopic dermatitis with lesions was assessed using a standard leg wash assay. Subjects completed a 4-week period of daily leg washes with zinc pyrithione (BCP2ZPT), a B7U bar soap, or a vehicle control (BCP2). Samples were collected at baseline (study onset) and after 4 weeks of leg washings.
Another study was conducted to specifically assess the effect of a zinc ionophore, i.e., zinc pyrithione, on the skin microbiota diversity of atopic dermatitis lesions using standard body wash protocol well-known in the art. The washes were carried out on a daily basis over a four-week period and 16S rDNA sequencing was used to identify bacterial genera while qPCR amplification was used to quantify the abundance of the genera. Measurements were taken at baseline and after the four-week wash period. Controls involved subjects washing with B7U bar soap or the BCP2 vehicle alone. […]

skin microbiota [2] = experiment: Four-week daily wash of atopic dermatitis without lesions, 16S rDNA sequencing and qPCR (FIG. 6); assay type: in vivo, human; settings: baseline vs four weeks of daily washing, p=0.027, FDR>0.05
Procedure: A study mirroring the study described in the brief description of FIG. 5 was conducted with subjects having atopic dermatitis without lesions substituted for subjects with atopic dermatitis with lesions. The relative abundance of Staphylococcus was measured using 16S rDNA sequencing and qPCR quantification. Subjects performed the standard leg wash using B7U bar soap, vehicle only (BCP2), or zinc pyrithione in BCP2 vehicle (BCP2ZPT). Samples were taken at the onset of the study to establish a baseline and after four weeks of leg washings.
A related experiment assessing the treatment effects of a zinc ionophore on skin microbiota diversity in subjects with atopic dermatitis without lesions was performed to assess the effects of the therapeutic in this context. The experimental design involved daily body washes of subjects with atopic dermatitis lacking visible lesions over a four-week period, with subjects engaging in daily washing with either B7U bar soap, vehicle alone (BCP2 base), or BCP2ZPT (which included 0.5% zinc pyrithione). Skin samples were again analyzed for microbiota composition by 16S rDNA sequencing with qPCR to quantify the abundances of the bacterial genera in the skin microbiotas.

skin microbiota [3] = settings: four-week wash period
Excerpt: Only qualified subjects with atopic dermatitis received treatment products during the treatment phase. These qualified subjects were each divided into three treatment groups. […]
Samples of microbiotas from skin with atopic dermatitis were subjected to sequence analyses to identify the various genera present on the skin and to measure relative abundances. In a first sequencing round, read lengths of 150-800 bp were obtained using the Closed OTU picking method. […] The second sequencing round yielded read lengths of 250-600 bp using the Cosed OTU picking method. […] The third sequencing round involved read lengths of 250-600 bp being obtained using the Cosed OTU picking method. […]
A study was conducted of the effect on skin microbiota of single washes or four-week wash periods of either a 0.5% zinc pyrithione body wash, a vehicle body wash, or a B7U bar soap wash. The relative abundances of 11 identified bacterial genera were monitored, along with a category of unclassified microbes. […]

skin microbiota [4] = settings: skin having atopic dermatitis, in a body wash

SMILES: [O-]n1ccccc1=S.[O-]n1ccccc1=S.[Zn+2] [zinc pyrithione, zinc salt of 1-hydroxy-2-pyridinethione]
- abundance of Kocuria (skin microbiota [1]): increased
- abundance of Staphylococcus (skin microbiota [2]): significantly reduced; also recorded: selective reduction
- relative abundance of Staphylococcus (skin microbiota [3]; atopic dermatitis patients not exhibiting lesions): selectively reduces
- relative abundance of Staphylococcus (skin microbiota [3]; subjects with atopic dermatitis lesions): selectively reduces
- total bacterial level (skin microbiota [4]): lowers
